Results published in ChEMBL document CHEMBL3301472, “MMV Malaria Box HIV and cytotoxicity screening”.

How the values were obtained:
Format in all cases: toxicity, cell-based
[1] = MMV: MTT Cytotoxicity Assay Day 7 pi of Assay #10 (NO washout), U87-CD4-CCR5 cells, % cell death @ 5mM compound; details: human, u87-cd4-ccr5, 5000 µM
[2] = MMV: MTT Cytotoxicity Assay Day 3 pi, U87-CD4-CCR5 cells, % cell death @ 5mM compound; details: human, u87-cd4-ccr5, 5000 µM
[3] = MMV: MTT Cytotoxicity Assay Day 7 pi of Assay #11 (NO washout), U87-CD4-CXCR4 cells, % cell death @ 5mM compound; details: human, u87-cd4-cxcr4, 5000 µM
[4] = MMV: MTT Cytotoxicity Assay Day 3 pi, U87-CD4-CXCR4 cells, % cell death @ 5mM compound; details: human, u87-cd4-cxcr4, 5000 µM
[5] = MMV: MTT Cytotoxicity Assay Day 7 pi of Assay #7 (compound washed out Day 1 pi), U87-CD4-CXCR4 cells, % cell death @ 5mM compound; details: human, u87-cd4-cxcr4, 5000 µM
[6] = MMV: MTT Cytotoxicity Assay Day 7 pi of Assay #6 (compound washed out Day 1 pi), U87-CD4-CCR5 cells, % cell death @ 5mM compound; details: human, u87-cd4-ccr5, 5000 µM

| SMILES | % Cell Death [1] | % Cell Death [2] | % Cell Death [3] | % Cell Death [4] | % Cell Death [5] | % Cell Death [6] |
| --- | --- | --- | --- | --- | --- | --- |
| Cc1ccc(-c2cc3c(nn2)-c2ccccc2C3=O)cc1 | 106 | 46 | 96 | 57 | 58 | 48 |
| Cc1ccc(Nc2nc(-c3ccccn3)cs2)cc1 | 21 | 24 | 12 | 29 | -17 | 20 |
| Cc1ccc(N2C(=O)C3C(C2=O)C2(c4ccccc4)C(=O)C3(c3ccccc3)C(c3ccccc3)=C2c2ccccc2)cc1 (centres undefined) | 33 | -31 | -35 | 36 | 5 | 0 |
| CCOC(=O)c1cn(CC)c2cc(N(C)CCc3ccc(OC)c(OC)c3)c(F)cc2c1=O | 27 | 22 | -17 | -10 | -40 | -4 |
| CC(C)(C)c1ccc(O)c(CNC2CCCCC2)c1 | 132 | 108 | 101 | 66 | 96 | 69 |
| CC1CN(C(=O)c2sc3ccccc3c2Cl)CC(C)O1 (centres undefined) | 124 | 107 | 105 | 47 | 45 | 7 |
| CN(C)c1ccc(C=Cc2nc(=O)c3ccccc3o2)cc1 | 46 | 39 | 20 | 38 | 0 | -14 |
| COc1ccc(C2=C(c3ccc(OC)cc3)C3(c4ccccc4)C(=O)C2(c2ccccc2)C2C(=O)N(c4ccc(C)cc4)C(=O)C23)cc1 (centres undefined) | 41 | -42 | -6 | 28 | 13 | -10 |
| CCOC(=O)c1c(NC(=O)c2ccccc2)sc2c(O)c(CN(CC)CC)ccc12 | 25 | -7 | 25 | -8 | 40 | -2 |
| CCOC(=O)C1=C(c2ccccc2)N=c2sc(=Cc3cc(C)n(-c4ccc(F)cc4)c3C)c(=O)n2C1c1cccc(OC)c1OC (centres undefined) | -17 | 18 | 20 | 45 | -3 | 5 |
| OC(CNC1CCCCC1)Cn1c2ccccc2c2ccccc21 (centres undefined) | 35 | -3 | -3 | 14 | -20 | 13 |
| Cc1cc(Nc2ccc(C)c(Cl)c2)n2nc(C(F)(F)F)nc2n1 | 42 | 11 | 10 | 28 | -28 | -35 |
| COc1cccc(C=Cc2nc(=O)c3ccccc3o2)c1OC | 51 | 70 | 31 | 54 | -19 | 17 |
| CCCN(CCC)CC(O)COc1ccccc1C(=O)Nc1ccccc1 (centres undefined) | 34 | 33 | -27 | 22 | 14 | -14 |
| Fc1ccc2[nH]c3c(NCCCN4CCOCC4)ncnc3c2c1 | 38 | -1 | 49 | 36 | 7 | 34 |
| COc1ccc(C=C2SC(=N)N(c3ccccc3OC)C2=O)cc1 | 143 | 100 | 93 | 101 | 95 | 100 |
| CCOC(=O)c1c(C)n(-c2ccc(Cl)cc2)c2ccc(OC(=O)C=Cc3ccccc3)cc12 | 2 | 18 | 51 | 26 | -5 | 4 |
| Cc1ccc(-c2cc3nc4c(c(O)n3n2)CCCC4)cc1 | 113 | 70 | 97 | 56 | 52 | 24 |
| COc1ccccc1CNC(=O)CCn1c(=O)[nH]c2ccccc2c1=O | 16 | -7 | -16 | 12 | -15 | 7 |
| c1ccc2cc3c(Nc4ccc(N5CCOCC5)cc4)ccnc3cc2c1 | 106 | 91 | 108 | 97 | 98 | 99 |
| CCOC(=O)c1cn(CC)c2cc(N3CCCCC3)c(F)cc2c1=O | 115 | 106 | 103 | 101 | 97 | 99 |
| CNCCCNc1ccnc2cc(Cl)ccc12 | 124 | 108 | 100 | 100 | 98 | 97 |
| COc1ccc(Br)cc1C1Nc2ccc3ccccc3c2C2=C1C(=O)CC(c1ccccc1)C2 (centres undefined) | 16 | 17 | -37 | 28 | -14 | 30 |
| Cc1cc(C=C2SC(=Nc3ccccc3)N(C3CCCC3)C2=O)c(C)n1-c1ccc(Cl)cc1 | 140 | 96 | 90 | 65 | 36 | 8 |
| CCOc1ccc(-c2nonc2NC(=O)c2cccc(C)c2)cc1OCC | 19 | -8 | -48 | 13 | -14 | -8 |
| Cc1ccc(N2C3c4ccccc4N(S(=O)(=O)c4ccc(C)cc4)C2c2ccccc2N3S(=O)(=O)c2ccc(C)cc2)cc1 | 8 | 26 | -39 | 37 | -17 | 0 |
| CCCc1c(CC)c(=N)c2ccccc2n1C | -7 | 33 | -23 | 21 | -9 | -10 |
| CCOC(=O)c1cnc2c(C)cc(C)cc2c1Nc1ccc(OC)c(OC)c1 | 8 | 11 | -7 | 22 | 7 | 19 |
| c1ccc(Cn2c(N=Nc3c(Nc4ccccc4)ccc4ccccc34)nc3ccccc32)cc1 | 83 | 92 | 101 | 97 | 99 | 95 |
